Measurements: patent US20230210819A1, “USE OF BENZISOSELAZOLE DERIVATIVE FOR ANTI-CORONAVIRUS AND CONTROL OF INTERSTITIAL LUNG DISEASE (ILD) RELATED TO CORONAVIRUS” (SHANGHAI YUANXI MEDICINE CORP., priority 2020, published 2023)

Key:
Assay type in all cases: in vivo, C57 mice
[1] = tested on: bleomycin-induced mouse lung disease model; assay: Blood gas analysis, 7-d modeling; conditions: Dex 1-1.5 mg/kg i.p. every two days, arterial blood after administration ended
Protocol: (§1) Animals of 7-d modeling were randomly divided into 7 groups according to the table below, 6 animals per control group and 12 animals per test group.
(§2) Drug administration began 24 h or 7 d after modeling. […] The day of the first administration was counted as D1, the next day as D2, and so forth. The normal groups and Model groups were given 200 µL of normal saline daily by gavage administration.
1. After being anaesthetized, a mouse was fixed to a board in a supine position.
2. After the skin was disinfected with alcohol, a midline cut of about 1.5 cm was made downward in the skin of the neck. The connective tissue between the sternohyoid muscle and the stemothyroid muscle was separated along the anterior border of the sternomastoid muscle with a tissue forceps. The pulsating common carotid artery could be seen on the deep right side of the trachea. A common carotid artery of about 1.5 cm in length was separated. The distal end was ligated with silk thread, and the proximal end was clipped with an artery clip and threaded with a silk thread for later use. The mouse board was placed under a dissecting microscope, and a V-shaped centripetal incision was gently made in a site near the distal end of the artery with a microscopy scissor. A PE microcatheter was inserted into the artery and fixed by making a knot with silk thread. The artery clip was removed, and 0.1-0.2 mL of blood was collected with a 1 mL syringe. The proximal end was clipped with an artery clip, and the syringe was removed. The blood was immediately analyzed on an AbboTTi-STAT blood gas microanalyzer.
In a blood gas analysis, the H^+ concentration in the blood and gases (mainly CO2 and O2) dissolved in the blood can be determined to directly reflect the function of pulmonary ventilation and the acid-base balance state. They are used to determine in the organism whether the acid-base balance is upset, whether anoxia occurred, the level of anoxia, and so forth.

[2] = Body weight, bleomycin-induced mice, 7-d modeling; conditions: Dex 1-1.5 mg/kg i.p. every two days
Protocol: as §1, §2
All the animals were observed once daily during the experiment for death or dying, feces, ingestion, mental state and behavior and activity. Abnormalities were recorded in time. All the animals were weighed once before grouping and once before each dose.
(§3) In this experiment, 105 C57 mice were randomly selected and subjected to organ drip administration of a single dose of bleomycin at 2.5 mg/kg for 24 h or 7 d for induction. After 7 days of induction, 3 model mice were randomly selected and dissected to determine whether the modeling was successful. After modeling, the survival of the mice was recorded. The living states of the mice were observed and their body weight was measured at a fixed time.
A normal control group comprised 6 mice.

[3] = tested on: bleomycin-induced mouse lung disease model; assay: Lung HE pathological analysis (Ashcroft score), 24-h modeling; conditions: 24-h modeling, Dex 1-1.5 mg/kg i.p. every two days
Protocol: (§4) Animals of 24-h modeling were randomly divided into 5 groups according to the table below, 3 animals per control group and 5 animals per test group.
as §2
(§5) 1. […] Specifically, a mold was prepared first, and then the tissue was laid flat at the bottom of the mold; after the section face was arranged facedown, the embedding box cover was put on the mold; molten wax was poured into the mold until it overflowed the mold, and then the mold was gently lifted up and laid flat in a freezing platform; after being rapidly cooled and frozen for about 10 min, the mold was took out. • 6) Sectioning method
(§6) 2. HE staining • 1) A flat section was selected for HE staining. • 2) The section was dewaxed in xylene I for 20 min. • 3) The section was dewaxed in xylene II for 20 min. • 4) The section was soaked in absolute ethanol for 10 min. • 5) Stepwise rehydrating, in absolute ethanol for 5 min, in 90% ethanol for 5 min, in 80% ethanol for 5 min, and in […] for 5 min; and a water wash. • 6) Staining with hematoxylin for 3-5 min. A water wash. • 7) Differentiating with 1% HCl-[…] for 5-10 s. A water wash, and bluing. • 8) Staining with eosin for 30-60 s. A water wash. • 9) Washing with 80% ethanol for 3-5 s, with 95% ethanol for 3-5 s, and with absolute ethanol for 3-5 s. • 10) Coverslipping with neutral resin, observing under a microscope, and photographing.
(§7) HE sectioning: 3 sections were consecutively made; flat sections of complete tissue were selected for HE staining; each of the sections was photographed in 3 randomly selected fields of view at 200x magnification. The obtained images were scored.
(§8) The general standard Ashcroft scoring method for pulmonary fibrosis tissues was adopted in HE scoring. The HE pathological analysis is an outcome evaluation for irreversible pulmonary fibrosis that develops in interstitial lung disease models.
For 5 animals from each of the 24-h modeling groups, a total of 15 HE fields of view were scored. […] According to the scoring criteria, a score below 3 points indicates there has been no significant structural change accompanying in the lung tissues.

[4] = tested on: bleomycin-induced mouse lung disease model; assay: Lung and spleen coefficients, 24-h modeling; conditions: Dex 1-1.5 mg/kg i.p. every two days
Protocol: as §4, §2
Method: after being euthanized, the animals were dissected, and the heart, liver, spleen, lung and kidney were weighed.
as §3
A normal control group comprised 3 mice.

[5] = tested on: bleomycin-induced mouse lung disease model; assay: Lung HE pathological analysis (Ashcroft score), 7-d modeling; conditions: 7-d modeling, Dex 1-1.5 mg/kg i.p. every two days
Protocol: as §1, §2, §5, §6, §7, §8
For 6 animals from each of the 7-d modeling groups, a total of 18 HE fields of view were scored.

For C[C@@H]1C[C@H]2[C@@H]3CCC4=CC(=O)C=C[C@]4(C)[C@@]3(F)[C@@H](O)C[C@]2(C)[C@@]1(O)C(=O)CO [Dex, dexamethasone, reference compound], the BEect [1] was -8.50 ± 1.05 mmol/L, the “HCO3^-” value [1] was 27.82 ± 1.08 mmol/L and the PCO2 [1] was 33.60±1.92 mmHg. The Body weight ([2]; D1) was 17.79 ± 0.89 g, the Body weight ([2]; D7) was 17.61 ± 1.02 g and the Body weight ([2]; D14) was 17.45 ± 0.96 g. For the same compound, the Body weight ([2]; D21) was 17.43 ± 0.92 g, the Body weight ([2]; D28) was 17.38 ± 0.85 g and the “Body weight decreased by” value ([2]; day 1 to day 28) was 2.42%. The “HE score and benefit rate, >4 points (percent of fields)” value [3] was 0%, the “HE score and benefit rate, >5, points (percent of fields)” value [3] was 0% 0% and the “HE score and benefit rate, ≥3 points (percent of fields)” value [3] was 53.3%. For the same compound, the “HE score (pulmonary fibrosis, Ashcroft)” value ([3]; 15 fields of view) was 2.53 ± 0.52, the Lung coefficient [4] was 0.93±0.09% and the Spleen coefficient [4] was 0.41±0.06%. The “HE score and benefit rate, ≥4 points (fields/total); pathological tissue change” value [5] was 7/18, the “HE score and benefit rate, ≥4 points (percent of fields); probability of pathological tissue change” value [5] was 38.9% and the “HE score and benefit rate, ≥6 points (fields/total)” value [5] was 0/18. For the same compound, the “HE score and benefit rate, ≥6 points (percent of fields)” value [5] was 0% and the “HE score (pulmonary fibrosis, Ashcroft)” value ([5]; 18 fields of view) was 3.28 ± 0.83.
